Counter-ions that a name gives are not always drawn.

The compound `CCCc1nc2c(N)nc3ccccc3c2n1CCC(N)=O` (as salt: hydrochloride) [Example 18, 3-(4-Amino-2-propyl-1H-imidazo[4,5-c]quinolin-1-yl)propanamide hydrochloride] displayed a melting point of 242 to 243 °C.

`CC(C)(Cn1cnc2c(N)nc3ccccc3c21)C(N)=O` (as salt: salt) [Example 62, 3-(4-Amino-1H-imidazo[4,5-c]quinolin-1-yl)-2,2-dimethylpropanamide] gave a melting point of 287 to 289 °C.

In turn, `CCCc1nc2c(N)nc3ccccc3c2n1CCCC(=O)N1CCOCC1` [Example 1, 1-(4-Morpholin-4-yl-4-oxobutyl)-2-propyl-1H-imidazo[4,5-c]quinolin-4-amine] came in with a melting point of 200 to 202 °C.

As for `CCCNC(=O)CCCn1c(CCC)nc2c(N)nc3ccccc3c21` [Example 2, 4-(4-Amino-2-propyl-1H-imidazo[4,5-c]quinolin-1-yl)-N-propylbutanamide], the melting point lay within 161 to 163 °C.

Regarding `CCCc1nc2c(N)nc3ccccc3c2n1CCCC(N)=O` [Example 4, 4-(4-Amino-2-propyl-1H-imidazo[4,5-c]quinolin-1-yl)butanamide], the melting point is 249 to 251 °C.

For the compound `CCOCc1nc2c(N)nc3ccccc3c2n1CCCC(=O)N1CCOCC1` [Example 5, 2-(Ethoxymethyl)-1-(4-morpholin-4-yl-4-oxobutyl)-1H-imidazo[4,5-c]quinolin-4-amine], the melting point lay in the range of 201 to 203 °C.

For `CCCc1nc2c(N)nc3ccccc3c2n1CCCCCC(=O)N1CCOCC1` [Example 6, 1-(6-Morpholin-4-yl-6-oxohexyl)-2-propyl-1H-imidazo[4,5-c]quinolin-4-amine], the melting point fell in the range of 149 to 151 °C.

Compound `CCCNC(=O)CCCCCn1c(CCC)nc2c(N)nc3ccccc3c21` [Example 7, 6-(4-Amino-2-propyl-1H-imidazo[4,5-c]quinolin-1-yl)-N-propylhexanamide] had a melting point of 139 to 141 °C.

In turn, `CCCc1nc2c(N)nc3ccccc3c2n1CCCCCC(=O)NC` [Example 8, 6-(4-Amino-2-propyl-1H-imidazo[4,5-c]quinolin-1-yl)-N-methylhexanamide] registered a melting point of 158 to 159 °C.

In turn, `CCCc1nc2c(N)nc3ccccc3c2n1CCCCCC(N)=O` [Example 9, 6-(4-Amino-2-propyl-1H-imidazo[4,5-c]quinolin-1-yl)hexanamide] returned a melting point of 210 to 211 °C.

In the case of `CCCNC(=O)CCCCCn1cnc2c(N)nc3ccccc3c21` [Example 10, 6-(4-Amino-1H-imidazo[4,5-c]quinolin-1-yl)-N-propylhexanamide], the melting point was in the range of 128 to 130 °C.

`Nc1nc2ccccc2c2c1ncn2CCCCCC(=O)N1CCOCC1` [Example 11, 1-(6-Morpholin-4-yl-6-oxohexyl)-1H-imidazo[4,5-c]quinolin-4-amine] had a melting point of 166 to 168 °C.

On to `COCCc1nc2c(N)nc3ccccc3c2n1CCCCCC(=O)N1CCOCC1` [Example 12, 2-(2-Methoxyethyl)-1-(6-morpholin-4-yl-6-oxohexyl)-1H-imidazo[4,5-c]quinolin-4-amine], for which the melting point fell in the range of 131 to 132 °C.

`CCOCc1nc2c(N)nc3ccccc3c2n1CCCCCC(=O)N1CCOCC1` [Example 13, 2-(Ethoxymethyl)-1-(6-morpholin-4-yl-6-oxohexyl)-1H-imidazo[4,5-c]quinolin-4-amine] displayed a melting point of 160 to 162 °C.

The compound `CCCNC(=O)CCCCCn1c(COCC)nc2c(N)nc3ccccc3c21` [Example 14, 6-[4-Amino-2-(ethoxymethyl)-1H-imidazo[4,5-c]quinolin-1-yl]-N-propylhexanamide] yielded a melting point of 161 to 162 °C.

For `CCCNC(=O)CCn1c(CCC)nc2c(N)nc3ccccc3c21` [Example 15, 3-(4-Amino-2-propyl-1H-imidazo[4,5-c]quinolin-1-yl)-N-propylpropanamide], the melting point fell in the range of 157 to 158 °C.

As for `CCCc1nc2c(N)nc3ccccc3c2n1CCC(=O)N1CCOCC1` [Example 16, 1-(3-Morpholin-4-yl-3-oxopropyl)-2-propyl-1H-imidazo[4,5-c]quinolin-4-amine], the melting point lay in the range of 172 to 173 °C.

On to `CCCc1nc2c(N)nc3ccccc3c2n1CCC(=O)NC` [Example 17, 3-(4-Amino-2-propyl-1H-imidazo[4,5-c]quinolin-1-yl)-N-methylpropanamide], for which the melting point fell in the range of 177 to 178 °C.

`COCCc1nc2c(N)nc3ccccc3c2n1CCC(=O)N1CCOCC1` [Example 19, 2-(2-Methoxyethyl)-1-(3-morpholin-4-yl-3-oxopropyl)-1H-imidazo[4,5-c]quinolin-4-amine]: the melting point was in the range of 125 to 126 °C.

`CNC(=O)CCn1cnc2c(N)nc3ccccc3c21` [Example 20, 3-(4-Amino-1H-imidazo[4,5-c]quinolin-1-yl)-N-methylpropanamide] yielded a melting point greater than 260 °C.

`CCCNC(=O)CCn1cnc2c(N)nc3ccccc3c21` [Example 21, 3-(4-Amino-1H-imidazo[4,5-c]quinolin-1-yl)-N-propylpropanamide]: the melting point is 212 to 214 °C.

Regarding `Cc1nc2c(N)nc3ccccc3c2n1CCC(=O)N1CCOCC1` [Example 22, 2-Methyl-1-(3-morpholin-4-yl-3-oxopropyl)-1H-imidazo[4,5-c]quinolin-4-amine], the melting point lay within 166 to 169 °C.

In turn, `CCOCc1nc2c(N)nc3ccccc3c2n1CCC(=O)N1CCOCC1` [Example 23, 2-(Ethoxymethyl)-1-(3-morpholin-4-yl-3-oxopropyl)-1H-imidazo[4,5-c]quinolin-4-amine] registered a melting point of 187 to 189 °C.

Regarding `CCOCc1nc2c(N)nc3ccccc3c2n1CCC(N)=O` [Example 24, 3-[4-Amino-2-(ethoxymethyl)-1H-imidazo[4,5-c]quinolin-1-yl]propanamide], the melting point is greater than 250 °C.

`CCCc1nc2c(N)nc3ccccc3c2n1CCCCCCCCCCCC(=O)NC` [Example 25, 12-(4-Amino-2-propyl-1H-imidazo[4,5-c]quinolin-1-yl)-N-methyldodecanamide] had a melting point of 135 to 137 °C.

The compound `CCCc1nc2c(N)nc3ccccc3c2n1CC(C)(C)C(N)=O` [Example 26, 3-(4-Amino-2-propyl-1H-imidazo[4,5-c]quinolin-1-yl)-2,2-dimethylpropanamide] yielded a melting point of 219 to 221 °C.

On to `CCCc1nc2c(N)nc3ccccc3c2n1CC(C)(C)C(=O)N1CCOCC1` [Example 27, 1-(2,2-Dimethyl-3-morpholin-4-yl-3-oxopropyl)-2-propyl-1H-imidazo[4,5-c]quinolin-4-amine], for which the melting point was 212 to 214 °C.

`CCOCc1nc2c(N)nc3ccccc3c2n1CC(C)(C)C(N)=O` [Example 28, 3-[4-Amino-2-(ethoxymethyl)-1H-imidazo[4,5-c]quinolin-1-yl]-2,2-dimethylpropanamide] had a melting point of 241 to 243 °C.

Regarding `CCCc1nc2c(N)nc3c(c2n1CCCC(=O)N1CCOCC1)CCCC3` [Example 29, 1-(4-Morpholin-4-yl-4-oxobutyl)-2-propyl-6,7,8,9-tetrahydro-1H-imidazo[4,5-c]quinolin-4-amine], the melting point lay within 181 to 183 °C.

Compound `CCCc1nc2c(N)nc3c(c2n1CCCCCC(=O)N1CCOCC1)CCCC3` [Example 30, 1-(6-Morpholin-4-yl-6-oxohexyl)-2-propyl-6,7,8,9-tetrahydro-1H-imidazo[4,5-c]quinolin-4-amine] gave a melting point of 162 to 163 °C.

(Values after US8697873B2, “Amide substituted imidazopyridines, imidazoquinolines, and imidazonaphthyridines” (3M Innovative Properties Company, priority 2004, dated 2014).)
